The results in this text go back to PMC12858405, “Ideal efficacy photoswitching for chromocontrol of TRPC4/5 channel functions in live tissues” (Nature Chemical Biology, 2026).

SMILES strings stand for the structures.

One assay concerns the target T1, TRPC4β-SYFP2 (Homo sapiens, UniProt Q9UBN4).
T1 construct: expressed in transfected cells; host or cells: HEK 293 (ATCC CRL 1573), transiently transfected (jetPRIME)
T1 sequence (Q9UBN4 1-893 isoform Q9UBN4-2): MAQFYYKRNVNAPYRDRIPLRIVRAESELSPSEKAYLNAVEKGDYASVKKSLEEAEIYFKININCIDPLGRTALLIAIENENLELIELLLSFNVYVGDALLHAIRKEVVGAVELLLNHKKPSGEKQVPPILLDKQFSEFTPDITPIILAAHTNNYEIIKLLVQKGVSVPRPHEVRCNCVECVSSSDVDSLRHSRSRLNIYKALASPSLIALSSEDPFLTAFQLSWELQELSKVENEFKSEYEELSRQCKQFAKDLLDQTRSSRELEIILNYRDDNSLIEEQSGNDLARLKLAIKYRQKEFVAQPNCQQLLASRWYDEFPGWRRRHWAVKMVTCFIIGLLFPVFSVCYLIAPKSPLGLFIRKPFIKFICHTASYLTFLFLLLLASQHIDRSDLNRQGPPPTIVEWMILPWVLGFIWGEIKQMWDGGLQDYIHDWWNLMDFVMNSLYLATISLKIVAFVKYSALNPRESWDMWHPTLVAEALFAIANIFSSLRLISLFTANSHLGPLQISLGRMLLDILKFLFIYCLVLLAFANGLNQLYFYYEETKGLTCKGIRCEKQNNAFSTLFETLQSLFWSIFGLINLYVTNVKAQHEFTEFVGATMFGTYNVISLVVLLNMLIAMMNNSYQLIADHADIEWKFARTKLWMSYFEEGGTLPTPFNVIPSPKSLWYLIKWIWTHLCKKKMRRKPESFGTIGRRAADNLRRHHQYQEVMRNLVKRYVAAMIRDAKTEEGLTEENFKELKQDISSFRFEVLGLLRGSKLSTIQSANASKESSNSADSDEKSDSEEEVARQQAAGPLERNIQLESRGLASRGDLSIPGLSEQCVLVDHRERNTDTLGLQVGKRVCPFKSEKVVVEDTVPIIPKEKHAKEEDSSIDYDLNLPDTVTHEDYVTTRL
In words: Fura-2 [Ca2+]i recordings, HEK 293 transiently expressing TRPC4β-SYFP2. The following applies: AzHC 10-1000 nM, AM237 100 nM. The class given is cell-based. The text has this: (§1) Müller, Niemeyer, et al., Schaefer & Thorn-Seshold 2025: Ideal Efficacy Photoswitching of TRPC4/5 in Tissue […]
(§2) 1.4.4 Differences and selectivity between TRPC5 and TRPC4?
(§3) AM237 activates TRPC5 but inhibits EA mediated activation of TRPC4; Pico145 inhibits both TRPC4 and TRPC5. Thus, somewhat naively, it could be argued that it is the para substituent here which affects both the efficacy mode and the selectivity for TRPC4 and/or TRPC5.
(§4) Intriguingly, Z-AzPico activates TRPC4 and TRPC5 with low nanomolar potency whereas Z-AzHC only activates TRPC5 but not TRPC4. Therefore, the meta substituent is now responsible for the selectivity in this case. The cryo-EM structures of Pico145 and HC-070 in complex with TRPC5 indicated the same binding site but the southern phenyl ring bearing the OCF3/Cl group is flipped and pointing in opposite directions.
(§5) Z isomers, i.e. Z-buried vs. E-projected. Additionally, both E-AzPico and E-AzHC inhibit EA […]
It is not surprising that both ligands bind to either protein because there is a high sequence similarity among the TRPC family in the identified binding pocket for Pico145 /HC-070, and in the binding region, human TRPC4/5 differ only by a single amino acid (TRPC5: V579, TRPC4: I579). We […]
the result of differences in this residue. […]
(§6) Intracellular calcium ([Ca2+]i) was measured using the ratiometric Ca2+ dye Fura-2. […]

Another assay addresses T2, TRPC4β-I575V-SYFP2 (Homo sapiens, UniProt Q9UBN4, I575V).
T2 construct: expressed in transfected cells; host or cells: HEK 293 (ATCC CRL 1573), transiently transfected (jetPRIME)
Put plainly: Fura-2 [Ca2+]i recordings, HEK 293 transiently expressing TRPC4β-I575V-SYFP2. It counts as cell-based. The following applies: AzHC 10-1000 nM, AM237 100 nM.
Source text: as §1
1.4.3 Note on TRPC4 / TRPC5 Sequence Alignment
The key contact residues of interest in the ligand binding site are highly conserved between TRPC4 and TRPC5. The relevant sequences in the site are: […]
as §2, §3, §4, §5, §6

T2 sequence (Q9UBN4 other isoform, or with tags, fused parts or gaps I575V): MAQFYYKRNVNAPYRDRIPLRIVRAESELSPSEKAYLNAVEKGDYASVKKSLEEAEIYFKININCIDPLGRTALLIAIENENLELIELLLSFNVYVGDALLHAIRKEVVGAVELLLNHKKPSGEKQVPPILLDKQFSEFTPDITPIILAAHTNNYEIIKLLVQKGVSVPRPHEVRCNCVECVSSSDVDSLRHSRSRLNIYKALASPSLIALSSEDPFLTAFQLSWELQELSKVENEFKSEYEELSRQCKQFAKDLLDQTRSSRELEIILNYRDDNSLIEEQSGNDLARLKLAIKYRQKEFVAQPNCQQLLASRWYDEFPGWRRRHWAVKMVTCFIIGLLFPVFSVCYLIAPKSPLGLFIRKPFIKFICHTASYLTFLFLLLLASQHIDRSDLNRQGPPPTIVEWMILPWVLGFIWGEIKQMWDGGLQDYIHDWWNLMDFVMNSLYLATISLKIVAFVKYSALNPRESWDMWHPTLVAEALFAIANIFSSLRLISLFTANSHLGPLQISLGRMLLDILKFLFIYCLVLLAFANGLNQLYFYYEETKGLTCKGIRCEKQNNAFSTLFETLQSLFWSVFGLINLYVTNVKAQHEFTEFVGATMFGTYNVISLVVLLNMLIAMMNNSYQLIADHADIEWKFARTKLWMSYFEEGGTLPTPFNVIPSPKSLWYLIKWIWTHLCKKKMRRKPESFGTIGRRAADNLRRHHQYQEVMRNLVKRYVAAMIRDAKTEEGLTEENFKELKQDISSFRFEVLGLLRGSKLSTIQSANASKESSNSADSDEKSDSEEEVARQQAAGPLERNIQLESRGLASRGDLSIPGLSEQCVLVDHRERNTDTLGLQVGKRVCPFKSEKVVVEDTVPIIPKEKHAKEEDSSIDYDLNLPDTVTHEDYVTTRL

In the case of `Cn1c(=O)n(CCCO)c(=O)c2c1nc(Oc1ccc(Cl)c(OC(F)(F)F)c1)n2Cc1ccc(Cl)cc1` [AM237, reference compound], the “Effect on [Ca2+]i, TRPC4” value at TRPC4β-SYFP2 is on record as “do not activate”. The “Effect on [Ca2+]i, TRPC4I575V” value at TRPC4β-I575V-SYFP2 is given as “do not activate”.

For the compound `Cn1c(=O)n(CCCO)c(=O)c2c1nc(Oc1ccc(/N=N\c3ccccc3)c(Cl)c1)n2Cc1ccc(Cl)cc1` [Z*-AzHC], at TRPC4β-SYFP2, the “Effect on [Ca2+]i, TRPC4” value is reported as “do not activate”. Moreover, on TRPC4β-I575V-SYFP2, the “Effect on [Ca2+]i, TRPC4I575V” value is recorded as “do not activate”.
